According to US20230102554A1 (GB002, INC., priority 2019, published 2023):
Where a name gives a salt, the structure may show the parent alone.

Legend:
[1] = biological target: T1, Human PDGFRα, cytoplasmic domain (GST-PDGFRα) (Homo sapiens, UniProt P16234); experiment: Human PDGFRα biochemical inhibition assay (off-chip Mobility Shift Assay)
T1 construct: made in house

[2] = biological target: T2, Human PDGFRβ, cytoplasmic domain (GST-PDGFRβ) (Homo sapiens, UniProt P09619); experiment: Human PDGFRβ biochemical inhibition assay (off-chip Mobility Shift Assay)
T2 construct: made in house
Protocol: Human PDGFRβ Biochemical Inhibition Assay
The compounds described herein were tested for the ability to inhibit activity of PDGFRβ which was achieved via use of an off-chip Mobility Shift Assay (MSA). Human PDGFRβ, cytoplasmic domain [557-1106 (end) amino acids of accession number NP_002600.1 (SEQ ID NO: 3)] was expressed as N-terminal GST-fusion protein (88 kDa) using baculovirus expression system (SEQ ID NO: 4). GST-PDGFRβ was purified by using glutathione sepharose chromatography. Test compounds were dissolved in and diluted with dimethylsulfoxide (DMSO) to achieve 1 mM concentration. Then the solution was further diluted 25-fold with assay buffer to make the final test compound solution. The reference compound, Staurosporine, used as the assay positive control was prepared similarly. The 4× compound solution/substrate (CSKtide, 1000 nM)/ATP (Km ATP)/Mg Metal (5 mM) was prepared with kit buffer (20 mM HEPES, 0.01% Triton X-100, 5 mM DTT, pH 7.5), and 2× kinase solution was prepared with assay buffer (20 mM HEPES, 0.01% Triton X-100, 1 mM DTT, pH 7.5). The 5 μL of 4× compound solution, […] of 4× Substrate/ATP/Metal solution, and […] of 2× kinase solution were mixed and incubated in a well of polypropylene 384 well microplate for 1 hour at room temperature. […] of Termination Buffer (QuickScout Screening Assist MSA; Carna Biosciences) was added to the well. The reaction mixture was applied to LabChip™ system (Perkin Elmer), and the product and substrate peptide peaks were separated and quantitated. The kinase reaction was evaluated by the product ratio calculated from peak heights of product(P) and substrate(S) peptides (P/(P+S)). The readout value of reaction control (complete reaction mixture) was set as a 0% inhibition, and the readout value of background (Enzyme(−)) was set as a 100% inhibition, then the percent inhibition of each test solution was calculated.
With respect to PDGFRβ activity: “+++” denotes an IC50 of less than 300 nM; “++” denotes an IC50 of from 300 nM to less than 1000 nM; and “+” denotes an IC50 of 1000 nM or more.

T2 sequence (P09619 with tags, fused parts or gaps): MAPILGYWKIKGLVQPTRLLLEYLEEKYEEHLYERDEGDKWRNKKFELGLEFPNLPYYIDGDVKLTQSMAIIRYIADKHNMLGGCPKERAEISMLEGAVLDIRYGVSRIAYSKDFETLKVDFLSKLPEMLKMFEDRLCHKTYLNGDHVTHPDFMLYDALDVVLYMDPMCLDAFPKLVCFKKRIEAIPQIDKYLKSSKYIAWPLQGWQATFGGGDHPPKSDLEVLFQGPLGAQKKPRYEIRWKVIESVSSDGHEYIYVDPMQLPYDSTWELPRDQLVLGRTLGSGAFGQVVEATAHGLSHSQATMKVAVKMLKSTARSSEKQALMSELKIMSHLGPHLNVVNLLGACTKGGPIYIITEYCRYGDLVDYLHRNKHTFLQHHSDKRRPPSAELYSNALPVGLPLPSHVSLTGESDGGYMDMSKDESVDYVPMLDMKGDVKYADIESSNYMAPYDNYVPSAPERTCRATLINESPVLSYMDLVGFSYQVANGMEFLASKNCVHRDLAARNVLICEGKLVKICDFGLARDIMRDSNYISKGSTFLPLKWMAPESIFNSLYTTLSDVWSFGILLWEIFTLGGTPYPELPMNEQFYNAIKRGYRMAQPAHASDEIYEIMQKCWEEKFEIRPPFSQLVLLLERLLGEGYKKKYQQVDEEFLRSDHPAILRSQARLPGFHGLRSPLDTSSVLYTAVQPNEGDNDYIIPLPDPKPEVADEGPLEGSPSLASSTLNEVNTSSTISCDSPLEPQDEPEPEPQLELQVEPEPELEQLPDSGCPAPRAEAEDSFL
T1 sequence (P16234 550-1089 T674I): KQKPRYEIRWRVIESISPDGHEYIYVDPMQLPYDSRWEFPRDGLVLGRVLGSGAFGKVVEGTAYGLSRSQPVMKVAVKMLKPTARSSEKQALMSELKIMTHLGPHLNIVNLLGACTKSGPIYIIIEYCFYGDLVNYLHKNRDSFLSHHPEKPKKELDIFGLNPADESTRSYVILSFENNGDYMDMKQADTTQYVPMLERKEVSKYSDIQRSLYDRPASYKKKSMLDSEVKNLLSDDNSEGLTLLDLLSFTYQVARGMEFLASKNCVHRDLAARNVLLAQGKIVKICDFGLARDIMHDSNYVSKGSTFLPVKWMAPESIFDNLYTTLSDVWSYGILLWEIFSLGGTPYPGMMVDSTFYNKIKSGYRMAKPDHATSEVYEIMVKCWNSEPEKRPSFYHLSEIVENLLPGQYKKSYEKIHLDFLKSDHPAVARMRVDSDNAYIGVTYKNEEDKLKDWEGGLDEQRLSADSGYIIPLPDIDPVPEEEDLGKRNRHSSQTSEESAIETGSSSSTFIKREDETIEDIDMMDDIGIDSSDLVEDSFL

## Cc1cncc(C(=O)Nc2cccc([C@H](C)Nc3cnc4ccn(C)c4n3)c2)c1 [Compound 1, (S)-5-methyl-N-(3-(1-((5-methyl-5H-pyrrolo[2,3-b]pyrazin-3-yl)amino)ethyl)phenyl)nicotinamide]
[1]
  IC50: < 300 nM
[2]
  IC50: < 300 nM

## Cc1cncc(C(=O)Nc2cccc([C@H](C)Nc3cnc4ccccc4c3)c2)c1 [Compound 2, (S)-5-methyl-N-(3-(1-(quinolin-3-ylamino)ethyl)phenyl)nicotinamide]
[1]
  IC50: < 300 nM
[2]
  IC50: 300 to 1000 nM

## Cc1cncc(C(=O)Nc2cccc([C@H](C)Nc3cnc4cccnc4c3)c2)c1 [Compound 3, (S)—N-(3-(1-((1,5-naphthyridin-3-yl)amino)ethyl)phenyl)-5-methylnicotinamide]
[1]
  IC50: < 300 nM
[2]
  IC50: ≥ 1000 nM

## Cc1cncc(C(=O)Nc2cccc([C@H](C)Nc3cnc4ccccc4n3)c2)c1 [Compound 4, (5)-5-methyl-N-(3-(1-(quinoxalin-2-ylamino)ethyl)phenyl)nicotinamide trifluoroacetate]
[1]
  IC50: < 300 nM
[2]
  IC50: < 300 nM

## Cc1cncc(C(=O)Nc2cccc([C@H](C)Nc3cnc4cccnc4n3)c2)c1 [Compound 5, (S)-5-methyl-N-(3-(1-(pyrido[2,3-b]pyrazin-3-ylamino)ethyl)phenyl) nicotinamide]
[1]
  IC50: < 300 nM
[2]
  IC50: 300 to 1000 nM

## COc1ccc(-n2ccc3ncc(N[C@@H](C)c4cccc(NC(=O)c5cncc(C)c5)c4)cc32)cc1OC [Compound 6, (S)—N-(3-(1-((1-(3,4-dimethoxyphenyl)-1H-pyrrolo[3,2-b]pyridin-6-yl)amino)ethyl)phenyl)-5-methylnicotinamide]
[1]
  IC50: < 300 nM
[2]
  IC50: ≥ 1000 nM

## CCn1ncc2ncc(N[C@@H](C)c3cccc(NC(=O)c4cncc(C)c4)c3)cc21 [Compound 7]
[1]
  IC50: < 300 nM
[2]
  IC50: ≥ 1000 nM

## Cc1cncc(C(=O)Nc2cccc([C@H](C)Nc3cnc4cnn(C)c4n3)c2)c1 [Compound 8, (S)-5-methyl-N-(3-(1-((1-methyl-1H-pyrazolo[3,4-b]pyrazin-6-yl)amino)ethyl)phenyl)nicotinamide]
[1]
  IC50: < 300 nM
[2]
  IC50: < 300 nM

## CCn1cc2ncc(N[C@@H](C)c3cccc(NC(=O)c4cncc(C)c4)c3)nc2n1 [Compound 9, (S)—N-(3-(1-((2-ethyl-2H-pyrazolo[3,4-b]pyrazin-6-yl)amino)ethyl)phenyl)-5-methylnicotinamide]
[1]
  IC50: < 300 nM
[2]
  IC50: 300 to 1000 nM

## CCn1cc2ncc(N[C@@H](C)c3cc(NC(=O)c4ccc(C(F)(F)F)nc4)ccc3F)nc2n1 [Compound 10, (S)—N-(3-(1-((2-ethyl-2H-pyrazolo[3,4-b]pyrazin-6-yl)amino)ethyl)-4-fluorophenyl)-6-(trifluoromethyl)nicotinamide]
[1]
  IC50: < 300 nM
[2]
  IC50: < 300 nM

## CCn1cc2ncc(N[C@@H](C)c3cccc(NC(=O)c4cncc(C)c4)c3)cc2n1 [Compound 11, (S)—N-(3-(1-((2-ethyl-2H-pyrazolo[4,3-b]pyridin-6-yl)amino)ethyl)phenyl)-5-methylnicotinamide]
[1]
  IC50: < 300 nM
[2]
  IC50: < 300 nM

## Cc1cncc(C(=O)Nc2cccc([C@H](C)Nc3cnc4[nH]c(=O)n(C)c4n3)c2)c1 [Compound 12, (S)-5-methyl-N-(3-(1-((3-methyl-2-oxo-2,3-dihydro-1H-imidazo[4,5-b]pyrazin-5-yl)amino)ethyl)phenyl)nicotinamide]
[1]
  IC50: < 300 nM
[2]
  IC50: < 300 nM

## Cc1cncc(C(=O)Nc2cccc([C@H](C)Nc3cnc4[nH]nc(C)c4c3)c2)c1 [Compound 14, (S)-5-methyl-N-(3-(1-((3-methyl-1H-pyrazolo[3,4-b]pyridin-5-yl)amino)ethyl)phenyl)nicotinamide]
[1]
  IC50: < 300 nM
[2]
  IC50: < 300 nM

## Cc1cncc(C(=O)Nc2cccc([C@H](C)Nc3cnc4[nH]cc(C)c4n3)c2)c1 [Compound 15, (S)-5-methyl-N-(3-(1-((7-methyl-5H-pyrrolo[2,3-b]pyrazin-2-yl)amino)ethyl)phenyl)nicotinamide]
[1]
  IC50: < 300 nM
[2]
  IC50: < 300 nM

## Cc1cncc(C(=O)Nc2cccc([C@H](C)Nc3cnc4[nH]nc(C)c4n3)c2)c1 [Compound 16, (S)-5-methyl-N-(3-(1-((3-methyl-1H-pyrazolo[3,4-b]pyrazin-5-yl)amino)ethyl)phenyl)nicotinamide]
[1]
  IC50: < 300 nM
[2]
  IC50: < 300 nM

## Cc1cncc(C(=O)Nc2cccc([C@H](C)Nc3cnc4cc(C)oc4n3)c2)c1 [Compound 17, (S)-5-methyl-N-(3-(1-((6-methylfuro[2,3-b]pyrazin-3-yl)amino)ethyl)phenyl)nicotinamide]
[1]
  IC50: < 300 nM
[2]
  IC50: < 300 nM

## Cc1cncc(C(=O)Nc2cccc([C@H](C)Nc3cnc4cc(C)sc4c3)c2)c1 [Compound 18, (S)-5-methyl-N-(3-(1-((2-methylthieno[3,2-b]pyridin-6-yl)amino)ethyl)phenyl)nicotinamide]
[1]
  IC50: < 300 nM
[2]
  IC50: < 300 nM

## Cc1cncc(C(=O)Nc2cccc([C@H](C)Nc3cnc4cc(C)sc4n3)c2)c1 [Compound 19, (S)-5-methyl-N-(3-(1-((6-methylthieno[2,3-b]pyrazin-3-yl)amino)ethyl)phenyl)nicotinamide]
[1]
  IC50: < 300 nM
[2]
  IC50: < 300 nM

## Cc1cncc(C(=O)Nc2cccc([C@H](C)Nc3cnn4ccccc34)c2)c1 [Compound 20, (S)-5-methyl-N-(3-(1-(pyrazolo[1,5-a]pyridin-3-ylamino)ethyl)phenyl)nicotinamide]
[1]
  IC50: ≥ 1000 nM
[2]
  IC50: ≥ 1000 nM

## Cc1cncc(C(=O)Nc2cccc([C@H](C)Nc3cncc4c3cnn4-c3cnn(C)c3)c2)c1 [Compound 21]
[1]
  IC50: < 300 nM
[2]
  IC50: < 300 nM

## Cc1cncc(C(=O)Nc2cccc([C@H](C)Nc3cnc4cc(C)oc4c3)c2)c1 [Compound 22, (S)-5-methyl-N-(3-(1-((2-methylfuro[3,2-b]pyridin-6-yl)amino)ethyl)phenyl)nicotinamide]
[1]
  IC50: < 300 nM
[2]
  IC50: < 300 nM

## Cc1cncc(C(=O)Nc2cccc([C@H](C)Nc3cnc4[nH]cnc4n3)c2)c1 [Compound 23, (S)—N-(3-(1-((1H-imidazo[4,5-b]pyrazin-5-yl)amino)ethyl)phenyl)-5-methylnicotinamide]
[1]
  IC50: 300 to 1000 nM
[2]
  IC50: 300 to 1000 nM

## CCc1nc2cc(N[C@@H](C)c3cccc(NC(=O)c4cncc(C)c4)c3)cnc2[nH]1 [Compound 24]
[1]
  IC50: 300 to 1000 nM
[2]
  IC50: 300 to 1000 nM

## CCn1cc2ncc(N[C@@H](C)c3cccc(NC(=O)Cc4ccc(C)cn4)c3)nc2n1 [Compound 25, (S)—N-(3-(1-((2-ethyl-2H-pyrazolo[3,4-b]pyrazin-6-yl)amino)ethyl)phenyl)-2-(5-methylpyridin-2-yl)acetamide]
[1]
  IC50: < 300 nM
[2]
  IC50: ≥ 1000 nM

## Cc1cncc(C(=O)Nc2cccc([C@H](C)Nc3cnc4ncccc4n3)c2)c1 [Compound 26, (S)-5-methyl-N-(3-(1-(pyrido[2,3-b]pyrazin-2-ylamino)ethyl)phenyl) nicotinamide]
[1]
  IC50: 300 to 1000 nM
[2]
  IC50: ≥ 1000 nM

## COc1cccc2ncc(N[C@@H](C)c3cccc(NC(=O)c4cncc(C)c4)c3)cc12 [Compound 27, (S)-N-(3-(1-((5-methoxyquinolin-3-yl)amino)ethyl)phenyl)-5-methylnicotinamide]
[1]
  IC50: < 300 nM
[2]
  IC50: < 300 nM

## COc1ccc2cc(N[C@@H](C)c3cccc(NC(=O)c4cncc(C)c4)c3)cnc2c1 [Compound 28, (S)-N-(3-(1-((7-methoxyquinolin-3-yl)amino)ethyl)phenyl)-5-methylnicotinamide]
[1]
  IC50: < 300 nM
[2]
  IC50: < 300 nM

## Cc1cncc(C(=O)Nc2cccc([C@H](C)Nc3cnc4cccc(F)c4c3)c2)c1 [Compound 29, (S)-N-(3-(1-((5-fluoroquinolin-3-yl)amino)ethyl)phenyl)-5-methylnicotinamide]
[1]
  IC50: < 300 nM
[2]
  IC50: < 300 nM

## Cc1cncc(C(=O)Nc2cccc([C@H](C)Nc3cnc4cc(F)c(F)cc4c3)c2)c1 [Compound 30, (S)-N-(3-(1-((6,7-difluoroquinolin-3-yl)amino)ethyl)phenyl)-5-methylnicotinamide]
[1]
  IC50: < 300 nM
[2]
  IC50: 300 to 1000 nM

## Cc1cncc(C(=O)Nc2cccc(CNc3cnc4ccccc4n3)c2)c1 [Compound 31, 5-methyl-N-(3-((quinoxalin-2-ylamino)methyl)phenyl) nicotinamide]
[1]
  IC50: < 300 nM
[2]
  IC50: < 300 nM

## COc1ccc2ncc(N[C@@H](C)c3cccc(NC(=O)c4cncc(C)c4)c3)nc2c1 [Compound 32, (S)-N-(3-(1-((7-methoxyquinoxalin-2-yl)amino)ethyl)phenyl)-5-methylnicotinamide]
[1]
  IC50: < 300 nM
[2]
  IC50: < 300 nM

## CSc1cncc(C(=O)Nc2cccc([C@H](C)Nc3cnc4cnn(C)c4n3)c2)c1 [Compound 225]
[2]
  IC50: < 300 nM
